Laboratory results published in US10836742B2, “N-substituted bicyclic lactams, their preparation and their use as pharmaceuticals” (NEOMED Institute, priority 2015, dated 2020).
pIC50: −log10 of the molar value.

Tests used:
BRD4(BD1) = BRD4(BD1) (Homo sapiens (Human), UniProt O60885); assay: In vitro bromodomain inhibition assay (AlphaLISA, H4-tetraacetyl peptide); assay type: binding; conditions: His-tagged BRD4 BD1 200 nM, biotinylated H4-tetraacetyl peptide 200 nM
Protocol: a) In vitro Bromodomain Inhibition Assay
To measure activity of bromodomain inhibitors, a His-epitope tagged BRD4 BD149-170 is purchased from BPS Bioscience. BRD4 binding and inhibition is assessed by monitoring the engagement of biotinylated H4-tetraacetyl peptide (H4K5/8/12/16; AnaSpec #64989-025) with the target using the AlphaLISA technology (Perkin-Elmer). Specifically, in a 384 well OptiPlate, BRD4(BD1) (200 nM final) is pre-incubated with either DMSO (final 1.0% DMSO) or a compound dilution series in DMSO. All reagents are diluted in assay buffer containing 50 mM HEPES (pH 7.4), 100 mM NaCl, 0.1% (w/v) BSA, and 0.05% (w/v) CHAPS. After a 30 minute incubation at room temperature, H4 peptide is added (200 nM final) and the reaction is incubated an additional 30 minutes at room temperature. Alpha streptavidin donor beads and AlphaLISA nickel chelate acceptor beads are then added to a final concentration of 10 μg/mL each. After one hour, equilibration plates are read on an Envision instrument and IC50s calculated using a four parameter non-linear curve fit (results are shown in Table 2).

[1] = tested on: human C-Myc gene transcription in MV-4-11 cells; assay: Transcription of human C-Myc in human leukemic MV-4-11 cells (QuantiGene 2.0); assay type: cell-based; conditions: inhibition of C-Myc mRNA transcription, 4 hours treatment
Protocol: b) Transcription of Human C-Myc in Human Leukemic MV-4-11 Cells:
The effect of compounds on transcription of human C-Myc gene is monitored in human B-myelomonocytic leukemia cell line MV-4-11 (from American Type Culture Collection (ATCC), Manassas, Va., USA) using QuantiGene 2.0 assay kit (Affymetrix, Santa Clara, Calif., USA).
Typically, 8,000 MV-4-11 cells are plated in sterile 96-well plates (Costar #3598 from Fisher Scientific Canada, Ottawa, Ontario, Canada) in Iscove's medium supplemented with 10% fetal bovine serum, glutamine (2 mM), and penicillin (100 I.U.) and streptomycin (100 μg/mL) (all from Wisent Inc., St. Bruno, Quebec, Canada). Compounds are dissolved in DMSO at 30 mM. A series of 1:3 dilutions are first made in DMSO, and further 1:100 dilutions are made in serum-containing cell culture media. The final concentration of DMSO is 0.1% in cell culture media. After cells are treated with various concentrations of test compound for 4 hours, cells are lysed using Quantigene 2.0 sample processing kit (#QS0100). C-Myc mRNA is detected using a QuantiGene 2.0 assay kit (#QS0009) with gene-specific probe to human C-Myc (#SA-50182) following the manufacturer's recommendations. Luminescene signals are read on Flexstation II microplate reader (Molecular Devices, Sunnyvale, Calif., USA).

Structure (SMILES): Cc1cc(-c2ccc3c(c2)N(Cc2ccc(F)cc2)C(=O)CC3)cn(C)c1=O [Compound 9, 7-(1,5-dimethyl-6-oxo-3-pyridyl)-1-[(4-fluorophenyl)methyl]-3,4-dihydro-quinolin-2-one]
- pIC50 (BRD4(BD1)): 6.15
- pIC50 ([1]; Homo sapiens, MV4-11, 4 h): 6.24

Structure (SMILES): Cc1cc(-c2ccc3c(c2)N(C(C)c2ccccc2)C(=O)CC3)cn(C)c1=O (single isomer, unassigned) [Compound 13, 7-(1,5-dimethyl-6-oxo-3-pyridyl)-1-(1-phenylethyl)-3,4-dihydroquinolin-2-one]
- pIC50 (BRD4(BD1)): 6.49
- pIC50 [1]: 6.80

Structure (SMILES): Cc1cc(-c2ccc3c(c2)N(Cc2ccccn2)C(=O)CO3)cn(C)c1=O [Compound 18, 6-(1,5-dimethyl-6-oxo-3-pyridyl)-4-(2-pyridylmethyl)-1,4-benzoxazin-3-one]
- pIC50 (BRD4(BD1)): 6.24
- pIC50 ([1]; Homo sapiens, MV4-11, 4 h): 6.07

Structure (SMILES): COc1cc(-c2cc(C)c(=O)n(C)c2)cc2c1N(Cc1ccccc1)C(=O)CC2 [Compound 6, 1-benzyl-6-(1,5-dimethyl-6-oxo-1,6-dihydropyridin-3-yl)-8-methoxy-3,4-dihydroquinolin-2(1H)-one]
- pIC50 (BRD4(BD1)): 5.59
- pIC50 ([1]; Homo sapiens, MV4-11, 4 h): 6.11

Structure (SMILES): Cc1cc(-c2ccc3c(c2)N(CC2CCCCO2)C(=O)CC3)cn(C)c1=O (single isomer, unassigned) [Compound 15, 7-(1,5-dimethyl-6-oxo-3-pyridyl)-1-(tetrahydropyran-2-ylmethyl)-3,4-dihydroquinolin-2-one]
- pIC50 (BRD4(BD1)): 5.82
- pIC50 [1]: 6.22

Structure (SMILES): Cc1cc(-c2ccc3c(c2)N(CCOC(F)(F)F)C(=O)CC3)cn(C)c1=O [Compound 8, 7-(1,5-dimethyl-6-oxo-3-pyridyl)-1-[2-(trifluoromethoxy)ethyl]-3,4-dihydroquinolin-2-one]
- pIC50 (BRD4(BD1)): 6.03
- pIC50 ([1]; Homo sapiens, MV4-11, 4 h): 6.09

Structure (SMILES): Cc1cc(-c2ccc3c(c2)N(Cc2ccccc2)C(=O)CO3)cn(C)c1=O [Compound 17, 4-benzyl-6-(1,5-dimethyl-6-oxo-3-pyridyl)-1,4-benzoxazin-3-one]
- pIC50 (BRD4(BD1)): 6.34
- pIC50 ([1]; Homo sapiens, MV4-11, 4 h): 7.02

Structure (SMILES): Cc1cc(-c2ccc3c(c2)OCC(=O)N3Cc2ccccc2)cn(C)c1=O [Compound 16, 4-benzyl-7-(1,5-dimethyl-6-oxo-3-pyridyl)-1,4-benzoxazin-3-one]
- pIC50 (BRD4(BD1)): 5.80
- pIC50 ([1]; Homo sapiens, MV4-11, 4 h): 6.22

Structure (SMILES): Cc1cc(-c2ccc3c(c2)N(CC2CCCCO2)C(=O)CC3)cn(C)c1=O (single isomer, unassigned) [Compound 14, 7-(1,5-dimethyl-6-oxo-3-pyridyl)-1-(tetrahydropyran-2-ylmethyl)-3,4-dihydroquinolin-2-one]
- pIC50 (BRD4(BD1)): 5.44
- pIC50 ([1]; Homo sapiens, MV4-11, 4 h): 6.23

Structure (SMILES): Cc1cc(-c2ccc3c(c2)N(C(C)c2ccccc2)C(=O)CC3)cn(C)c1=O (single isomer, unassigned) [Compound 12, 7-(1,5-dimethyl-6-oxo-3-pyridyl)-1-(1-phenylethyl)-3,4-dihydroquinolin-2-one]
- pIC50 (BRD4(BD1)): 6.04
- pIC50 [1]: 6.05

Structure (SMILES): Cc1cc(-c2ccc3c(c2)N(CC2CC(F)(F)C2)C(=O)CC3)cn(C)c1=O [Compound 11, 1-[(3,3-difluorocyclobutyl)methyl]-7-(1,5-dimethyl-6-oxo-3-pyridyl)-3,4-di hydroquinolin-2-one]
- pIC50 (BRD4(BD1)): 6.07
- pIC50 ([1]; Homo sapiens, MV4-11, 4 h): 6.06

Structure (SMILES): COc1cc2c(cc1-c1cc(C)c(=O)n(C)c1)CCC(=O)N2C(C)c1ccccc1 (stereo not shown) [Compound 1, 6-(1,5-dimethyl-6-oxo-3-pyridyl)-7-methoxy-1-(1-phenylethyl)-3,4-dihydroquinolin-2-one]
- pIC50 ([1]; Homo sapiens, MV4-11, 4 h): 6.26

Structure (SMILES): COc1cc2c(cc1-c1cc(C)c(=O)n(C)c1)CCC(=O)N2C(C)c1ccccn1 (stereo not shown) [Compound 4, 6-(1,5-dimethyl-6-oxo-3-pyridyl)-7-methoxy-1-[1-(2-pyridyl)ethyl]-3,4-dihydroquinolin-2-one]
- pIC50 [1]: 6.08

Structure (SMILES): Cc1cc(-c2ccc3c(c2)N(Cc2ccccc2)C(=O)CC3)cn(C)c1=O [Compound 7, 1-benzyl-7-(1,5-dimethyl-6-oxo-3-pyridyl)-3,4-dihydroquinolin-2-one]
- pIC50 (BRD4(BD1)): 6.13
- pIC50 ([1]; Homo sapiens, MV4-11, 4 h): 6.59

Structure (SMILES): COc1cc2c(cc1-c1cc(C)c(=O)n(C)c1)CCC(=O)N2C(C)c1ccccc1 (stereo not shown) [Compound 2, 6-(1,5-dimethyl-6-oxo-3-pyridyl)-7-methoxy-1-(1-phenylethyl)-3,4-dihydroquinolin-2-one]
- pIC50 [1]: 6.08

Structure (SMILES): Cc1cc(-c2cc(C)c(=O)n(C)c2)cc2c1N(Cc1ccccc1)C(=O)CC2 [Compound 21, 1-Benzyl-6-(1,5-dimethyl-6-oxo-1,6-dihydropyridin-3-yl)-8-methyl-3,4-dihydroquinolin-2(1H)-one]
- pIC50 ([1]; Homo sapiens, MV4-11, 4 h): 6.09

Structure (SMILES): Cc1cc(-c2ccc3c(c2)N(CCOC(F)(F)F)C(=O)CO3)cn(C)c1=O [Compound 20, 6-(1,5-dimethyl-6-oxo-3-pyridyl)-4-[2-(trifluoromethoxy)ethyl]-1,4-benzoxazin-3-one]
- pIC50 (BRD4(BD1)): 6.06
- pIC50 ([1]; Homo sapiens, MV4-11, 4 h): 6.30

Structure (SMILES): Cc1cc(-c2ccc3c(c2)N(Cc2ccccn2)C(=O)CC3)cn(C)c1=O [Compound 10, 7-(1,5-dimethyl-6-oxo-3-pyridyl)-1-(2-pyridylmethyl)-3,4-dihydroquinolin-2-one]
- pIC50 (BRD4(BD1)): 6.38
- pIC50 ([1]; Homo sapiens, MV4-11, 4 h): 6.27

Structure (SMILES): COc1cc2c(cc1-c1cc(C)c(=O)n(C)c1)CCC(=O)N2C(C)c1ccccn1 (stereo not shown) [Compound 3, 6-(1,5-dimethyl-6-oxo-3-pyridyl)-7-methoxy-1-[1-(2-pyridyl)ethyl]-3,4-dihydroquinolin-2-one]
- pIC50 ([1]; Homo sapiens, MV4-11, 4 h): 6.05

Structure (SMILES): Cc1cc(-c2ccc3c(c2)N(CC2CC(F)(F)C2)C(=O)CO3)cn(C)c1=O [Compound 19, 4-[(3,3-difluorocyclobutyl)methyl]-6-(1,5-dimethyl-6-oxo-3-pyridyl)-1,4-benzoxazin-3-one]
- pIC50 (BRD4(BD1)): 6.09
- pIC50 ([1]; Homo sapiens, MV4-11, 4 h): 6.12

Structure (SMILES): Cc1cc(-c2cc(Cl)c3c(c2)CCC(=O)N3Cc2ccccc2)cn(C)c1=O [Compound 22, 1-benzyl-8-chloro-6-(1,5-dimethyl-6-oxo-1,6-dihydropyridin-3-yl)-3,4-dihydroquinolin-2(1H)-one]
- pIC50 ([1]; Homo sapiens, MV4-11, 4 h): 6.08

Structure (SMILES): Cc1cc(-c2ccc3c(c2)CCC(=O)N3Cc2ccccc2)cn(C)c1=O [Compound 5, 1-benzyl-6-(1,5-dimethyl-6-oxo-3-pyridyl)-3,4-dihydroquinolin-2-one]
- pIC50 ([1]; Homo sapiens, MV4-11, 4 h): 6.08
